According to ChEMBL document CHEMBL1141341, “Minor sesquiterpene lactones from Centaurea pullata and their antimicrobial activity” (2007):
≈ marks a conversion by molar mass, not a printed value.

Assays:
Trichoderma viride = test: Antifungal activity against Trichoderma viride IAM 5061 by microdilution technique; type: functional
[1] = test system: Staphylococcus epidermidis; test: Antibacterial activity against Staphylococcus epidermidis ATCC 12228 by microdilution technique; type: functional
Pseudomonas tolaasii = test: Antibacterial activity against Pseudomonas tolaasii by microdilution technique; type: functional
Penicillium ochrochloron = test: Antifungal activity against Penicillium ochrochloron ATCC 9112 by microdilution technique; type: functional
Salmonella enteritidis = test: Antibacterial activity against Salmonella enteritidis by microdilution technique; type: functional, Salmonella enterica subsp. enterica serovar Enteritidis; conditions: Salmonella enterica
Escherichia coli = test: Antibacterial activity against Escherichia coli ATCC 35210 by microdilution technique; type: functional
Aspergillus ochraceus = test: Antifungal activity against Aspergillus ochraceus ATCC 12066 by microdilution technique; type: functional
Micrococcus luteus = test: Antibacterial activity against Micrococcus flavus ATCC 10240 by microdilution technique; type: functional
Aspergillus flavus = test: Antifungal activity against Aspergillus flavus ATCC 9643 by microdilution technique; type: functional
Talaromyces funiculosus = test: Antifungal activity against Penicillium funiculosum ATCC 36839 by microdilution technique; type: functional
Fusarium tricinctum = test: Antifungal activity against Fusarium tricinctum CBS 514478 by microdilution technique; type: functional
Alternaria alternata = test: Antifungal activity against Alternaria alternata DSM 2006 by microdilution technique; type: functional
Aspergillus niger = test: Antifungal activity against Aspergillus niger ATCC 6275 by microdilution technique; type: functional
Bacillus subtilis = test: Antibacterial activity against Bacillus subtilis ATCC 10907 by microdilution technique; type: functional

Structure (SMILES)	MIC (Trichoderma viride)	MIC [1]	MIC (Pseudomonas tolaasii)	MIC (Penicillium ochrochloron)	MIC (Salmonella enteritidis)	MIC (Escherichia coli)	MIC (Aspergillus ochraceus)	MIC (Micrococcus luteus)	MIC (Aspergillus flavus)	MIC (Talaromyces funiculosus)	MFC (Trichoderma viride)	MBC [1]	MBC (Pseudomonas tolaasii)	MFC (Penicillium ochrochloron)	MBC (Salmonella enteritidis)	MBC (Escherichia coli)	MFC (Aspergillus ochraceus)	MBC (Micrococcus luteus)	MFC (Aspergillus flavus)	MFC (Talaromyces funiculosus)	further results
C=C(C(=O)O[C@H]1C/C(C)=C/CC/C(CO)=C/[C@H]2OC(=O)[C@H](C)[C@H]12)C(O)CO (stereo partly drawn)	0.2 µg/mL (≈ 0.526 µM)	0.4 µg/mL (≈ 1.05 µM)	0.2 µg/mL (≈ 0.526 µM)	0.1 µg/mL (≈ 0.263 µM)	0.3 µg/mL (≈ 0.789 µM)	0.2 µg/mL (≈ 0.526 µM)	0.1 µg/mL (≈ 0.263 µM)	0.2 µg/mL (≈ 0.526 µM)	0.1 µg/mL (≈ 0.263 µM)	0.2 µg/mL (≈ 0.526 µM)	0.3 µg/mL (≈ 0.789 µM)	0.4 µg/mL (≈ 1.05 µM)	0.3 µg/mL (≈ 0.789 µM)	0.2 µg/mL (≈ 0.526 µM)	0.3 µg/mL (≈ 0.789 µM)	0.3 µg/mL (≈ 0.789 µM)	0.2 µg/mL (≈ 0.526 µM)	0.3 µg/mL (≈ 0.789 µM)	0.2 µg/mL (≈ 0.526 µM)	0.3 µg/mL (≈ 0.789 µM)	MFC (Fusarium tricinctum): 0.2 µg/mL (≈ 0.526 µM); MIC (Fusarium tricinctum): 0.1 µg/mL (≈ 0.263 µM); MFC (Alternaria alternata): 0.2 µg/mL (≈ 0.526 µM); MIC (Alternaria alternata): 0.1 µg/mL (≈ 0.263 µM); MFC (Aspergillus niger): 0.3 µg/mL (≈ 0.789 µM); MIC (Aspergillus niger): 0.2 µg/mL (≈ 0.526 µM); MBC (Bacillus subtilis): 0.2 µg/mL (≈ 0.526 µM); MIC (Bacillus subtilis): 0.2 µg/mL (≈ 0.526 µM)
C=C(CCO)C(=O)O[C@H]1C/C(C)=C/CC/C(CO)=C/[C@H]2OC(=O)[C@H](C)[C@H]12	0.2 µg/mL (≈ 0.549 µM)	0.4 µg/mL (≈ 1.1 µM)	0.3 µg/mL (≈ 0.823 µM)	0.1 µg/mL (≈ 0.274 µM)	0.3 µg/mL (≈ 0.823 µM)	0.2 µg/mL (≈ 0.549 µM)	0.1 µg/mL (≈ 0.274 µM)	0.2 µg/mL (≈ 0.549 µM)	0.1 µg/mL (≈ 0.274 µM)	0.2 µg/mL (≈ 0.549 µM)	0.3 µg/mL (≈ 0.823 µM)	0.4 µg/mL (≈ 1.1 µM)	0.3 µg/mL (≈ 0.823 µM)	0.2 µg/mL (≈ 0.549 µM)	0.3 µg/mL (≈ 0.823 µM)	0.2 µg/mL (≈ 0.549 µM)	0.2 µg/mL (≈ 0.549 µM)	0.3 µg/mL (≈ 0.823 µM)	0.2 µg/mL (≈ 0.549 µM)	0.3 µg/mL (≈ 0.823 µM)	MFC (Fusarium tricinctum): 0.3 µg/mL (≈ 0.823 µM); MIC (Fusarium tricinctum): 0.2 µg/mL (≈ 0.549 µM); MFC (Alternaria alternata): 0.3 µg/mL (≈ 0.823 µM); MIC (Alternaria alternata): 0.2 µg/mL (≈ 0.549 µM); MFC (Aspergillus niger): 0.3 µg/mL (≈ 0.823 µM); MIC (Aspergillus niger): 0.2 µg/mL (≈ 0.549 µM); MBC (Bacillus subtilis): 0.2 µg/mL (≈ 0.549 µM); MIC (Bacillus subtilis): 0.2 µg/mL (≈ 0.549 µM)
CN[C@@H]1[C@H](O[C@H]2[C@H](O[C@H]3[C@H](O)[C@@H](O)[C@H](N=C(N)N)[C@@H](O)[C@@H]3N=C(N)N)O[C@@H](C)[C@]2(O)C=O)O[C@@H](CO)[C@H](O)[C@H]1O (stereo in doubt) [STREPTOMYCIN]	–	1 µg/mL (≈ 1.72 µM)	1 µg/mL (≈ 1.72 µM)	–	1 µg/mL (≈ 1.72 µM)	0.5 µg/mL (≈ 0.86 µM)	–	0.5 µg/mL (≈ 0.86 µM)	–	–	–	1 µg/mL (≈ 1.72 µM)	2 µg/mL (≈ 3.44 µM)	–	1 µg/mL (≈ 1.72 µM)	1 µg/mL (≈ 1.72 µM)	–	1 µg/mL (≈ 1.72 µM)	–	–	MBC (Bacillus subtilis): 0.5 µg/mL (≈ 0.86 µM); MIC (Bacillus subtilis): 0.5 µg/mL (≈ 0.86 µM)
Clc1ccc(COC(Cn2ccnc2)c2ccc(Cl)cc2Cl)c(Cl)c1 (stereo not drawn) [MICONAZOLE]	2 µg/mL (≈ 4.81 µM)	–	–	2 µg/mL (≈ 4.81 µM)	–	–	1.5 µg/mL (≈ 3.6 µM)	–	0.5 µg/mL (≈ 1.2 µM)	2 µg/mL (≈ 4.81 µM)	2 µg/mL (≈ 4.81 µM)	–	–	5 µg/mL (≈ 12 µM)	–	–	4 µg/mL (≈ 9.61 µM)	–	2 µg/mL (≈ 4.81 µM)	5 µg/mL (≈ 12 µM)	MFC (Fusarium tricinctum): 1 µg/mL (≈ 2.4 µM); MIC (Fusarium tricinctum): 0.2 µg/mL (≈ 0.481 µM); MFC (Alternaria alternata): 1 µg/mL (≈ 2.4 µM); MIC (Alternaria alternata): 0.2 µg/mL (≈ 0.481 µM); MFC (Aspergillus niger): 4 µg/mL (≈ 9.61 µM); MIC (Aspergillus niger): 1.5 µg/mL (≈ 3.6 µM)

Continued by falling MIC (Trichoderma viride), values first:

MIC (Trichoderma viride)	MIC [1]	MIC (Pseudomonas tolaasii)	MIC (Penicillium ochrochloron)	MIC (Salmonella enteritidis)	MIC (Escherichia coli)	MIC (Aspergillus ochraceus)	MIC (Micrococcus luteus)	MIC (Aspergillus flavus)	MIC (Talaromyces funiculosus)	Structure (SMILES)	MFC (Trichoderma viride)	MBC [1]	MBC (Pseudomonas tolaasii)	MFC (Penicillium ochrochloron)	MBC (Salmonella enteritidis)	MBC (Escherichia coli)	MFC (Aspergillus ochraceus)	MBC (Micrococcus luteus)	MFC (Aspergillus flavus)	MFC (Talaromyces funiculosus)	further results
0.4 µg/mL (≈ 1.05 µM)	0.4 µg/mL (≈ 1.05 µM)	0.2 µg/mL (≈ 0.526 µM)	0.3 µg/mL (≈ 0.789 µM)	0.4 µg/mL (≈ 1.05 µM)	0.4 µg/mL (≈ 1.05 µM)	0.2 µg/mL (≈ 0.526 µM)	0.2 µg/mL (≈ 0.526 µM)	0.2 µg/mL (≈ 0.526 µM)	0.3 µg/mL (≈ 0.789 µM)	C=C(CCO)C(=O)O[C@H]1C[C@]2(C)C([C@H]3OC(=O)[C@H](C)[C@H]13)[C@@H](C=O)CC[C@H]2O (stereo partly drawn)	0.5 µg/mL (≈ 1.31 µM)	0.5 µg/mL (≈ 1.31 µM)	0.3 µg/mL (≈ 0.789 µM)	0.4 µg/mL (≈ 1.05 µM)	0.4 µg/mL (≈ 1.05 µM)	0.4 µg/mL (≈ 1.05 µM)	0.3 µg/mL (≈ 0.789 µM)	0.3 µg/mL (≈ 0.789 µM)	0.3 µg/mL (≈ 0.789 µM)	0.4 µg/mL (≈ 1.05 µM)	MFC (Fusarium tricinctum): 0.3 µg/mL (≈ 0.789 µM); MIC (Fusarium tricinctum): 0.2 µg/mL (≈ 0.526 µM); MFC (Alternaria alternata): 0.3 µg/mL (≈ 0.789 µM); MIC (Alternaria alternata): 0.2 µg/mL (≈ 0.526 µM); MFC (Aspergillus niger): 0.3 µg/mL (≈ 0.789 µM); MIC (Aspergillus niger): 0.2 µg/mL (≈ 0.526 µM); MBC (Bacillus subtilis): 0.3 µg/mL (≈ 0.789 µM); MIC (Bacillus subtilis): 0.2 µg/mL (≈ 0.526 µM)
0.3 µg/mL (≈ 0.789 µM)	0.4 µg/mL (≈ 1.05 µM)	0.4 µg/mL (≈ 1.05 µM)	0.3 µg/mL (≈ 0.789 µM)	0.4 µg/mL (≈ 1.05 µM)	0.4 µg/mL (≈ 1.05 µM)	0.2 µg/mL (≈ 0.526 µM)	0.2 µg/mL (≈ 0.526 µM)	0.2 µg/mL (≈ 0.526 µM)	0.3 µg/mL (≈ 0.789 µM)	C=C(CCO)C(=O)O[C@H]1C[C@]2(C)C([C@H](C=O)CC[C@H]2O)[C@H]2OC(=O)[C@H](C)[C@H]12 (stereo partly drawn)	0.4 µg/mL (≈ 1.05 µM)	0.5 µg/mL (≈ 1.31 µM)	0.5 µg/mL (≈ 1.31 µM)	0.4 µg/mL (≈ 1.05 µM)	0.4 µg/mL (≈ 1.05 µM)	0.4 µg/mL (≈ 1.05 µM)	0.3 µg/mL (≈ 0.789 µM)	0.3 µg/mL (≈ 0.789 µM)	0.3 µg/mL (≈ 0.789 µM)	0.4 µg/mL (≈ 1.05 µM)	MFC (Fusarium tricinctum): 0.3 µg/mL (≈ 0.789 µM); MIC (Fusarium tricinctum): 0.2 µg/mL (≈ 0.526 µM); MFC (Alternaria alternata): 0.3 µg/mL (≈ 0.789 µM); MIC (Alternaria alternata): 0.2 µg/mL (≈ 0.526 µM); MFC (Aspergillus niger): 0.3 µg/mL (≈ 0.789 µM); MIC (Aspergillus niger): 0.2 µg/mL (≈ 0.526 µM); MBC (Bacillus subtilis): 0.3 µg/mL (≈ 0.789 µM); MIC (Bacillus subtilis): 0.2 µg/mL (≈ 0.526 µM)
0.2 µg/mL (≈ 0.473 µM)	0.4 µg/mL (≈ 0.947 µM)	0.2 µg/mL (≈ 0.473 µM)	0.1 µg/mL (≈ 0.237 µM)	0.3 µg/mL (≈ 0.71 µM)	0.3 µg/mL (≈ 0.71 µM)	0.1 µg/mL (≈ 0.237 µM)	0.2 µg/mL (≈ 0.473 µM)	0.2 µg/mL (≈ 0.473 µM)	0.2 µg/mL (≈ 0.473 µM)	CC(=O)OC/C=C(/CO)C(=O)O[C@H]1C/C(C)=C/CC/C(CO)=C/[C@H]2OC(=O)[C@H](C)[C@H]12	0.3 µg/mL (≈ 0.71 µM)	0.5 µg/mL (≈ 1.18 µM)	0.3 µg/mL (≈ 0.71 µM)	0.2 µg/mL (≈ 0.473 µM)	0.3 µg/mL (≈ 0.71 µM)	0.3 µg/mL (≈ 0.71 µM)	0.2 µg/mL (≈ 0.473 µM)	0.3 µg/mL (≈ 0.71 µM)	0.2 µg/mL (≈ 0.473 µM)	0.3 µg/mL (≈ 0.71 µM)	MFC (Fusarium tricinctum): 0.3 µg/mL (≈ 0.71 µM); MIC (Fusarium tricinctum): 0.2 µg/mL (≈ 0.473 µM); MFC (Alternaria alternata): 0.3 µg/mL (≈ 0.71 µM); MIC (Alternaria alternata): 0.2 µg/mL (≈ 0.473 µM); MFC (Aspergillus niger): 0.3 µg/mL (≈ 0.71 µM); MIC (Aspergillus niger): 0.2 µg/mL (≈ 0.473 µM); MBC (Bacillus subtilis): 0.3 µg/mL (≈ 0.71 µM); MIC (Bacillus subtilis): 0.2 µg/mL (≈ 0.473 µM)
